Experiments:
pancreatin = test: Protection from enzymatic degradation by pancreatin; assay type: in vitro ADME; conditions: pancreatin:GA 1:10, 37° C., phosphate buffer pH 6.8
Experimental: The enzymatic degradation of free GA in solution versus GA in the nano suspension (˜50% bound to the nanoparticles) and versus GA bound to the nanoparticles (˜100% bound) was studied using pancreatin. The GA bound to the nanoparticles was prepared by collecting fractions from the void volume of the Sephadex column as described in Example 1 and pooling the samples. Pancreatin is a mixture of pancreatic proteases consisting of trypsin and chymotrypsins.
Pancreatin 3.5 mg was dissolved in 10 ml of 0.05M phosphate buffer pH=6.8. Free GA, GA in nano suspension, or fully bound GA, 35 mg as GA, was dissolved or suspended in 10 ml of 0.05M phosphate buffer pH=6.8. 1 ml of the pancreatin solution and 1 ml of the GA solution or suspension were mixed (the ratio of pancreatin to GA was fixed at 1:10) and held at 37° C. At fixed time points the enzymatic reaction was stopped by adding 0.4 ml of 1N HCl. The residual GA content of the mixture was determined by the HPLC method described in Example 1.

multiple sclerosis = conditions: cited from earlier work
[1] = test system: EAE in the Lewis rat model; test: Efficacy in rat experimental autoimmune encephalomyelitis (EAE); assay type: in vivo; conditions: for % of inhibition vs. DDW: inhibition of group mean score
Text: In this experiment the goal was to reduce experimental autoimmune encephalomyelitis (EAE) induced clinical signs in the Lewis rat model. Lewis (LEW) rats are highly susceptible to EAE induced with guinea pig spinal cord homogenate (GPSCH) emulsified in modified complete Freund's adjuvant (CFA). […] Decreased signs of EAE in rats with test materials administered orally during the study is considered a protective effect set forth by the experimental design.
The animal were induced with the disease by subcutaneous injection of GPSCH emulsion into both hind paws on day 1.
Initiation of scoring of rats for EAE clinical signs started on day 9. The treatment groups were blinded to the scorer. The treatments or control treatments were started on day 1 and administered daily to day 22. Treatments were administered by oral gavage at a dose and frequency described in Table 2.
There were ten rats in each group.
The animals were accessed daily for EAE clinical signs as described in Table 3.
The number of sick animals in each group were assessed. The day of onset of the symptoms, the duration of days of the symptoms and the number of animals dying were noted and the percentages calculated.
The maximal scores of each of the animals in each group were summed. The mean maximal score of the group was calculated as follows: […]
Σ Maximal score of each rat/number of rats in the group.
The scores of each of the animals in the group were summed and the mean score per day was calculated. The group mean score was calculated as follows: • Σ Total score of each rat per day/number of rats in the group. Results

spleen cells of mice = test: Immunologic activity ex-vivo in mice: cytokine secretion from splenocytes activated with GA RS (ELISA); conditions: mice fed daily 250 μg GA equivalent; throughout the test period
Experimental: The ability of GA-Wax-PVP to elicit an immune response with a similar cytokine pattern as glatiramer acetate solution was tested in an ex-vivo model in mice. The study was conducted over a period of 10 days. Mice were fed daily with GA reference standard (GA RS, 250 μg), GA-Wax-PVP (amount equivalent to 250 μg GA) or Wax-PVP as negative control (similar volume and weight of particles as GA-Wax-PVP). During the study period, subsets of animals in each treatment group were sacrificed on days 3, 6 and 10. Spleens were excised and primary cell cultures were prepared. The effect of the treatment was tested by in-vitro activation of splenocytes with GA RS. The response of the cells to the challenge is a measure of previous exposure to GA. Comparing the immune response of the mice fed GA-Wax-PVP to those fed GA RS gives a measure of the relative exposure to GA that each treatment provided. T-cell response was monitored by detection of cytokines secreted from activated cells by ELISA analysis. The levels of IL-2, TGF-β, IL-4, IL-5, IL-10 and IFN-γ were examined.

[2] = daily oral gavage day 1-22, 2.5 mg GA/ml, 5 ml/kg

With Glatiramer acetate [GA] the “percent residual GA” value (pancreatin; 0 min) was 100.0 +/− 0.0%, the “percent residual GA” value (pancreatin; 1 min) was 75.1 +/− 3.9% and the “percent residual GA” value (pancreatin; 2 min) was 63.4 +/− 4.8%. For the same substance, the “percent residual GA” value (pancreatin; 3 min, listed as Free GA, 3 min) was 56.3 +/− 4.7%, the “percent residual GA” value (pancreatin; 3 min, listed as free GA) was 56% and the “percent residual GA” value (pancreatin; 6 min) was 47.1 +/− 4.4%. The “clinical benefits for MS patients” value (multiple sclerosis; 20 mg subcutaneous daily injection) was “extended clinical benefits”, the “burden of disease lesions in magnetic resonance imaging measures” value (multiple sclerosis; literature review) was “significantly reduce” and the “relapse rate of multiple sclerosis” value (multiple sclerosis; literature review) was “significantly reduce”. For the same substance, the “Group Mean Score” value ([1]; EAE clinical score 0-6) was 0.67 ± 0.4, the “Mean Maximal Score” value ([1]; EAE clinical score 0-6) was 2.2 ± 1.1 and the Incidence % [1, 2] was 89%. The “Incidence Total N” value [1, 2] was 8/9, the “Mean Disease Duration” value [1, 2] was 3.2 ± 1.6 days and the “Mean Onset” value [1, 2] was 13.0 ± 2.5 days. For the same substance, the Mortality % [1, 2] was 0%, the “Mortality Total N” value [1, 2] was 0/10 and the “Incidence Total N” value ([1]; daily oral gavage day 1-22, 2.5 mg GA/ml, 5 ml/kg, listed as Glatiramer acetate oral solution) was “eight of nine”. For the same substance, the “Daily Mean Score” value ([1]; day 9, EAE clinical score 0-6) was 0.0, the “Daily Mean Score” value ([1]; day 10, EAE clinical score 0-6) was 0.0 and the “Daily Mean Score” value ([1]; day 11, EAE clinical score 0-6) was 0.2. The “Daily Mean Score” value ([1]; day 12, EAE clinical score 0-6) was 1.3, the “Daily Mean Score” value ([1]; day 13, EAE clinical score 0-6) was 2.0 and the “Daily Mean Score” value ([1]; day 14, EAE clinical score 0-6) was 1.8. The “Daily Mean Score” value ([1]; day 15, EAE clinical score 0-6) was 1.2, the “Daily Mean Score” value ([1]; day 16, EAE clinical score 0-6) was 0.1 and the “Daily Mean Score” value ([1]; day 17, EAE clinical score 0-6) was 0.0. For the same substance, the “Daily Mean Score” value ([1]; day 18, EAE clinical score 0-6) was 0.0, the “AUC of daily mean score” value ([1]; days 9-18) was 6.6 and the “% of inhibition vs. DDW” value [1] was 38%. For the same substance, the “% of inhibition vs. DDW” value ([1]; listed as glatiramer acetate oral solution) was 38%, the “effect on disease severity of EAE (conclusion)” value ([1]; oral administration, in words) was “inhibit the disease severity of EAE in rats” and the “levels of all the cytokines examined (IL-2, TGF-β, IL-4, IL-5, IL-10, IFN-γ)” value (spleen cells of mice) was “similar”.
